Consider four compounds from article PMC12681733, “Multifunctional kojic acid-tetrahydroisoquinoline hybrids: Synthesis, tyrosinase inhibition, and applications in the anti-browning of fresh-cut mushrooms” (Current Research in Food Science, 2025).

The structures appear in SMILES notation.

Series [1] has as its target tyrosinase. As to conditions: ref Zhang et al., 2025; cited from earlier work.
Series [2] deals with tyrosinase (Agaricus bisporus, UniProt C7FF04). Put plainly: Kinetic analysis (Lineweaver-Burk plots, L-DOPA). Format: biochemical, mushroom. Here is the method:
Reaction rates were determined using different concentrations of compounds (1.25, 2.5, and 5 μM) and L-DOPA solutions (0.5, 1, 1.5, and 2 mM).

Series [3] deals with tyrosinase. Briefly: Fluorescence quenching of tyrosinase. The class given is binding. The method, then: Fluorescence intensity quantification was performed on a spectrofluorometer (Cary Eclipse) following a literature-established protocol ([Peng et al., 2021]), a tyrosinase solution (200 U/mL) was prepared in phosphate buffer (pH = 6.8). Incremental volumes of 4c solution at identical concentrations were added to the enzyme solution. With an excitation wavelength of 280 nm, an emission slit width of 5 nm, and the mixture was recorded in the 290–450 nm emission wavelength range.

Series [4] relates to tyrosinase. Put plainly: ANS-binding fluorescence measurement. As to conditions: 4c from 0 μM to 50 μM. Here is the method: An equal volume of ANS solution (80 μM) was added to the tyrosinase solution (400 U/mL). After thorough mixing, the mixture was left to stand at room temperature for 30 min. Subsequently, a specific amount of the ANS-labeled tyrosinase solution was extracted, vigorously shaken, and 4c was incrementally added dropwise to this mixture. The fluorescence spectrum of the mixture was scanned under conditions of an excitation wavelength of 390 nm, an emission slit width of 5 nm, and an emission wavelength range of 400–600 nm ([Lü et al., 2010]).

Series [5] deals with tyrosinase. Put plainly: UV spectra measurement. Format: binding. As to conditions: addition of 4c. The method, then: Following the reported methods ([Chen et al., 2022]), a 3 mL assay system was established by adding a solution of 4c (300 μM, 350 μL) and tyrosinase solution (200 U/mL, 400 μL) to 2250 μL of PBS at pH 6.8. Spectral measurements were carried out using a UV-1800 spectrophotometer with wavelength scanning from 200 to 400 nm. Three experimental controls were implemented: (1) PBS buffer as blank reference, (2) 4c solution in PBS without enzyme, and (3) enzyme solution in PBS without 4c. To ensure measurement reliability, all spectra were acquired in triplicate through independent scanning processes. Background corrections were systematically applied using corresponding control solutions for each experimental condition.

The subject of another series is fresh-cut mushrooms. Briefly: Anti-browning study on fresh-cut mushrooms. Further details: species or system button mushrooms. The note with it: 100 μM sprayed, 4 °C, 7-day storage; versus KA and control. The method, then: Fresh and clean mushrooms of appropriate size were purchased from the local supermarket and their surfaces were evenly trimmed. […] CIE Lab values (L∗, a∗, and b∗) were measured using a colorimeter (NR60CP) to monitor the color changes of the fresh-cut mushrooms ([Wang et al., 2023]). The browning progression on mushroom surfaces was monitored via daily photographic documentation. The anti-browning efficacy was quantified using the total color difference (ΔE), calculated according to formula (4):(4) ΔE=[(Lt∗−Linitial∗)^2+(at∗−ainitial∗)^2+(bt∗−binitial∗)^2]^0.5

Another series relates to zebrafish embryos. Put plainly: Acute toxicity in zebrafish embryos (OECD FET No. 236). Format: in vivo. The note with it: 4c 25, 50, 100 μM; KA 100 μM; observed at 48 hpf. Here is the method:
The acute toxicity assay was conducted in accordance with the Guidelines of Organization for Economic Co-operation and Development (OECD) for the Testing of Chemicals, Fish Embryo Acute Toxicity (FET) Test, No. 236 ([OECD, 2013]). All zebrafish procedures in this study were approved by Anhui Medical University Experimental Animal Ethics Committee (Protocol No.: LLSC20241625). The zebrafish were maintained in accordance with the established protocols of the Zebrafish International Resource Center. Surviving zebrafish were humanely euthanized at the end of the study to prevent prolonged suffering. The euthanasia method involved immersion in a buffered solution of tricaine methanesulfonate at a concentration of 300 mg/L for at least 10 min, followed by confirmation of death through the cessation of gill movement and heartbeat. Carcasses were promptly frozen at −20 °C and disposed of through authorized biological waste channels.
Referring to published methods with certain modifications ([Qian et al., 2018]), 13–15 h post-fertilization (hpf) zebrafish embryos were placed in small dishes containing 5 mL of culture medium in this experiment. Different concentrations of 4c (25, 50, 100 μM) and KA (100 μM) were added to the dishes, respectively, and the experiments were repeated three times. […]

The subject of the next series is Staphylococcus aureus. Briefly: Antibacterial activity, plate counting. The note with it: for antibacterial rate against S. aureus: KA and THIQ groups, Fig. 7A. The class given is cell-based. The method, then:
(§1) The antibacterial activity of 4c against Escherichia coli (E. coli) and Staphylococcus aureus (S. aureus) was evaluated using a modified plate counting method based on literature reports ([Ruan et al., 2024]). In this process, the strains were first activated on LB agar medium at 37 °C for 18 h. Subsequently, bacterial suspensions (1 × 10^8 CFU/mL) were prepared in fresh nutrient broth medium according to the 0.5 McFarland turbidity standard. These suspensions were then diluted to 1 × 10^5 CFU/mL for antibacterial testing. Various concentrations of 4c solutions were prepared and mixed with the 1 × 10^5 CFU/mL bacterial suspensions, with equal volumes of physiological saline added to the control group. The mixtures were incubated at 37 °C for 12 h, serially diluted, plated (100 μL) onto plate count agar medium, and incubated for 24 h at 37 °C for colony counting. Each experiment was conducted in triplicate, and the antibacterial rate was calculated using the following formula (2):(2) BacterialInhibitionrate(%)=(1−XS/X0)×100% where X0 represented the bacterial colony count of the control group post 24-h incubation, while XS denoted the average bacterial colony count of the sample group.

Another series concerns Escherichia coli. Put plainly: Antibacterial activity, plate counting. Format: cell-based. As to conditions: for antibacterial rate against E. coli: KA and THIQ groups, Fig. 7A. Here is the method: as §1
The nature of series [6]: Stability evaluation (HPLC content). The class given is physicochemical. Here is the method: The purpose of stability testing is to provide evidence on how the quality of an active substance varies with time under the influence of a variety of environmental factors such as temperature, humidity, and light. Compound 4c with the strongest activity was evaluated for its stability. 4c was first dissolved in acetonitrile to prepare a 100 mM stock solution. This stock solution was then diluted to a 10 mM working concentration using different pH buffer solutions (4.0, 7.0 and 9.0). The samples were aliquoted into sealed vials. These vials were placed at different temperatures (25 °C, 40 °C and 60 °C) under both light-exposed and light-protected conditions for stability testing. The content change of the compound was monitored at scheduled time intervals (0 h, 24 h and 72 h) using an HPLC method.

Another series concerns Botrytis cinerea. Briefly: Antifungal activity, radial growth on PDA. Format: cell-based. The note with it: 4c at high concentrations (5, 15, 30 μg/mL tested), 72 h. Here is the method:
Fungal contamination is a major cause of food spoilage. To evaluate the antifungal potential of 4c, its efficacy against the common phytopathogen Botrytis cinerea (B. cinerea) was investigated ([Zhou et al., 2025]). The assay was performed as follows: B. cinerea was first cultivated on Potato Dextrose Agar (PDA) to ensure robust growth. Subsequently, 4c was prepared at various concentrations and incorporated into PDA to form a drug-containing medium. Fungal mycelia were then inoculated onto the center of both the treatment and control plates, with the latter containing an equal volume of physiological saline instead of the compound. All plates were incubated at 27 °C for 72 h. Following incubation, the colonial growth on each Petri dish was photographed, with particular attention to the mycelial morphology and expansion. The antifungal activity was quantified by measuring the radial growth of the fungus, and the inhibition rate was calculated according to formula (3):(3) FungalInhibitionrate(%)=(1−DS/D0)×100% where D0 is the growth size of the control group, DS is the growth size of the group containing the sample group.

[7] abbreviates: plot of log[(F0−F)/F] against log[I].
Where [8] appears, read: 4c at high concentrations (5, 15, 30 μg/mL tested).

Chain of tyrosinase (Agaricus bisporus, UniProt C7FF04) (C7FF04 1-392): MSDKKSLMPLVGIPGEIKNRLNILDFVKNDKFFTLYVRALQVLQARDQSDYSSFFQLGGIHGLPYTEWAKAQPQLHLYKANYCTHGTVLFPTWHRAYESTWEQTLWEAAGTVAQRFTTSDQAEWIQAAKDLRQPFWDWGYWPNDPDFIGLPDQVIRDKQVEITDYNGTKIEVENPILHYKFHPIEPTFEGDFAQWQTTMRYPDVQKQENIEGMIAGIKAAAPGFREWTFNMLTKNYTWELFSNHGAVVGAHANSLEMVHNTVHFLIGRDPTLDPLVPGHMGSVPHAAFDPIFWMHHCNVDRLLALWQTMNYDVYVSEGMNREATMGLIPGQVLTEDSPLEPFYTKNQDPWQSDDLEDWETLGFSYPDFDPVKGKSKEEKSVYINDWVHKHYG

Regarding `Oc1ccccc1-c1nnc(S)o1` [Compound 2f, 5-(2-hydroxyphenyl)-1,3,4-oxadiazole-2-thiol], the IC50 at tyrosinase [1] was 17.7 ± 0.21 µM.

For `COc1ccc2c(c1)CCN(Cc1cc(=O)c(O)co1)C2` [Compound 4c], the Ki at tyrosinase [2] (L-DOPA substrate, slope replot, read-out: inhibition constant Ki for free enzyme) turned out to be 1.48 µM. Besides, the inhibition type result against tyrosinase [2] (Lineweaver-Burk plots) is listed as “mixed-type inhibitor”. The compound also returned a relative fluorescence intensity in the series on tyrosinase [3] (25 μM 4c) of 52%. Moreover, the “fluorescence intensity of tyrosinase” value in the series on tyrosinase [3] (25 μM 4c, 146.61 without inhibitor, emission peak 354 nm) turned out to be 76.92. The fluorescence quenching mechanism result in the series on tyrosinase [3] (Kq versus maximum dynamic quenching constant) is on record as “static quenching”. This compound had a Stern-Volmer quenching constant Ksv with tyrosinase [3] (Stern-Volmer plot) of 43000 L/mol. For the same compound, the “bimolecular quenching constant Kq” value with tyrosinase [3] (Stern-Volmer plot) is 4.3 × 10^12 L mol^−1 S^−1. Moreover, the “apparent binding constant Ka” value in the series on tyrosinase [3] (setting [7]) was found to be 15100 L/mol. Moreover, the “number of binding sites n” value with tyrosinase [3] (setting [7]) came to 1.11. Also, the “maximum fluorescence intensity of ANS-TYR” value in the series on tyrosinase [4] is “gradually increased”. The “characteristic absorption peak of tyrosinase at 280 nm” value with tyrosinase [5] is on record as “significant decrease”. The “L∗ (lightness) of fresh-cut mushrooms” value in the series with fresh-cut mushrooms is recorded as “highest L∗ value”. Moreover, the “total color difference ΔE of fresh-cut mushrooms” value with fresh-cut mushrooms is listed as “lowest ΔE value”. Moreover, the “acute toxicity in zebrafish embryos” value with zebrafish embryos is reported as “no significant toxic effects”. Further, the “inhibition rate against S. aureus” value in the series with Staphylococcus aureus (setting [8]) is roughly 100%. For the same compound, in the series with Escherichia coli (setting [8]), the “inhibition rate against E. coli” value was roughly 100%. Further, the “content (stability testing)” value was 97.01% in series [6] (25℃, pH 4, 0 h); 98.10% in series [6] (25℃, pH 4, 24 h); 98.32% in series [6] (25℃, pH 4, 72 h); 98.63% in series [6] (25℃, pH 7, 0 h); 97.48% in series [6] (25℃, pH 7, 24 h); 98.03% in series [6] (25℃, pH 7, 72 h). In addition, the “content (stability testing)” value in series [6] (25℃, pH 9, 0 h) is listed as 97.43%; in [6] (25℃, pH 9, 24 h) it was 97.48%; in series [6] (25℃, pH 9, 72 h), 97.59%; in series [6] (40℃, pH 4, 0 h), 97.02%; in series [6] (40℃, pH 4, 24 h), 97.50%; in [6] (40℃, pH 4, 72 h) it was 97.41%. The “content (stability testing)” value in [6] (40℃, pH 7, 0 h) was found to be 97.56%; in series [6] (40℃, pH 7, 24 h), 96.04%; in series [6] (40℃, pH 7, 72 h), 97.75%; in series [6] (40℃, pH 9, 0 h) it was 96.51%; in series [6] (40℃, pH 9, 24 h), 95.00%; in series [6] (40℃, pH 9, 72 h), 96.12%. The “content (stability testing)” value came to 96.64% in series [6] (60℃, pH 7, 0 h); 96.84% in [6] (60℃, pH 7, 24 h); 96.62% in [6] (60℃, pH 7, 72 h); 96.61% in series [6] (60℃, pH 9, 0 h); 96.04% in series [6] (60℃, pH 9, 24 h); 96.26% in [6] (60℃, pH 9, 72 h). The “content (stability testing)” value was 96.64% in [6] (Light, pH 7, 0 h); 96.84% in series [6] (Light, pH 7, 24 h); 96.62% in [6] (Light, pH 7, 72 h); 96.61% in series [6] (Light, pH 9, 0 h); 96.04% in series [6] (Light, pH 9, 24 h); 96.26% in [6] (Light, pH 9, 72 h). For the same compound, the retention rate in series [6] (after 72 h, all pH (4.0, 7.0, 9.0) and temperatures (25, 40, 60 °C)) is recorded as greater than 95%. Moreover, the “inhibition rate against B. cinerea” value in the series on Botrytis cinerea was roughly 90%.

Take `O=c1cc(CO)occ1O` [Kojic acid]: the “acute toxicity in zebrafish embryos” value with zebrafish embryos is “partial mortality”. Further, the “antibacterial rate against S. aureus” value in the series on Staphylococcus aureus is “low antibacterial rates”. Also, the “antibacterial rate against E. coli” value in the series with Escherichia coli is “low antibacterial rates”.

Consider `c1ccc2c(c1)CCNC2` [THIQ, tetrahydroisoquinoline], for which, in the series on Staphylococcus aureus, the “antibacterial rate against S. aureus” value is on record as “low antibacterial rates”. The “antibacterial rate against E. coli” value in the series with Escherichia coli is listed as “low antibacterial rates”.
